For one data set, the target named is T1, INPIONCH1 (Homo sapiens, UniProt Q401N2).
T1 construct: V5 (C); His (C); expressed in transfected cells; host or cells: HEK293
T1 sequence (Q401N2 2-412): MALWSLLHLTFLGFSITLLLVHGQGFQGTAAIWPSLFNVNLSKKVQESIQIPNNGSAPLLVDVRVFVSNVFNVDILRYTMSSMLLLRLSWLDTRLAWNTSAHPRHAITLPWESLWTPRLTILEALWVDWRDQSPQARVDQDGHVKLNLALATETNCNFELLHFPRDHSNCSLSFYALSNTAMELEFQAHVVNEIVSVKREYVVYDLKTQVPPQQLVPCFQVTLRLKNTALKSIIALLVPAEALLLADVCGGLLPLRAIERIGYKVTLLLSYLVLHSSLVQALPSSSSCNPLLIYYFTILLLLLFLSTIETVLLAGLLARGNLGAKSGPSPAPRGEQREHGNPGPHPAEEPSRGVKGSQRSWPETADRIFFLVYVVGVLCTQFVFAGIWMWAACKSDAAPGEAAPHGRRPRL
The experiment in a line: Whole cell patch-clamp of HEK293 cells transfected with INPIONCH1. Format: cell-based. Particulars: for activation of current on application: cells transfected with INPIONCH1. From the text: Cells were clamped at −80 mV or −60 mV. Drugs were applied by pressure ejection from modified micropipettes.

Another data set relates to HEK293 cells. The following applies: 1 mM.

`NCCc1c[nH]c2ccc(O)cc12` [5-HT, serotonin]: on INPIONCH1 (10 μM, HEK293 cells expressing INPIONCH1), the “current on application of 5-HT” value was “inward current”. Also, the “response following a second application (desensitisation)” value at INPIONCH1 (second application of 5-HT, stated for 'the channels') is on record as “minimal or absent”. The “reversal potential of 5-HT-induced current” value at INPIONCH1 (voltage ramps -90 to +90 mV before and after 5-HT application) is “about 0 mV”. Moreover, the “induction of currents before and after application of zinc sulphate” value on INPIONCH1 (zinc sulphate 1 mM) is “able to induce currents”.

As for `COc1cc2c3cc1Oc1cc(ccc1O)C[C@@H]1c4c(cc(OC)c(O)c4Oc4ccc(cc4)C[C@@H]3N(C)CC2)CC[N+]1(C)C` [Tubocurarine], at INPIONCH1, the “effect on the 5-HT induced channel” value was “no effect” and the “effect on the leak channel” value is listed as “no effect”.

`CC(=O)OCC[N+](C)(C)C` [acteylcholine]: the “activation of current on application” value on INPIONCH1 was “appeared not to activate current”.

In the case of `CN1CCCC1c1cccnc1` (stereo not shown) [nicotine], the “activation of current on application” value on INPIONCH1 was “appeared not to activate current”. Besides, the “effect on outward current recorded at positive potentials” value on INPIONCH1 (in some cells) was “appeared to block outward current”.

Turning to `NC[C@H](O)c1ccc(O)c(O)c1` [noradrenaline], the “activation of current on application” value at INPIONCH1 is listed as “appeared not to activate current”.

For `O=S(=O)([O-])[O-].[Zn+2]` [zinc sulphate], the “toxicity to the cells” value with HEK293 cells is “appeared to be toxic”. Further, the zinc activated current entry at INPIONCH1 (zinc sulphate application) is listed as “no consistent specific zinc activated current was observed”. Further, the “effect on amplitude of the current in response to 5-HT” value at INPIONCH1 (zinc sulphate applied to the cells) is reported as “appeared to reduce the amplitude”.

Values taken from US20060166310A1, “Serotonin receptor” (Inpharmatica Ltd., priority 2002, published 2006).
